In US9204653B2, “5-fluoro pyrimidine derivatives” (DOW AGROSCIENCES LLC, priority 2008, dated 2015):
Read-outs that look alike come from different tables or passages of the source.

Test system: Mycosphaerella graminicola; Anamorph: Septoria tritici; Bayer Code SEPTTR
Assay: Leaf blotch of wheat, foliar fungicide treatment, one day protectant (1DP) or three day curative (3DC)
Type: in vivo, Septoria tritici on wheat plants (variety Yuma)
Conditions: Zymoseptoria tritici, rating of percent disease control
[1] = 24 h, one day protectant, read-out: SETTTR 1DP 25 ppm
[2] = 24 h, one day protectant, read-out: SEPTTR 1DP 100 ppm
[3] = 72 h, three day curative, read-out: SEPTTR 3DC 25 ppm
[4] = 72 h, three day curative, read-out: SEPTTR 3DC 100 ppm

Nc1nc(OCc2ccc(SC(F)(F)F)cc2)ncc1F [Compound 632]
pest or weed control at 25 ppm [1]: 76 to 100% | pest or weed control at 100 ppm [2]: 76 to 100% | pest or weed control at 25 ppm [3]: 76 to 100% | pest or weed control at 100 ppm [4]: 76 to 100%

CCOC(=O)Nc1nc(OCc2cccc(F)c2)ncc1F [Compound 633]
pest or weed control at 25 ppm [1]: 76 to 100% | pest or weed control at 100 ppm [2]: 76 to 100% | pest or weed control at 25 ppm [3]: 76 to 100% | pest or weed control at 100 ppm [4]: 76 to 100%

CN(C)/C=N/c1nc(OC(=O)OCC(Cl)(Cl)Cl)ncc1F [Compound 634]
pest or weed control at 25 ppm [1]: 76 to 100% | pest or weed control at 100 ppm [2]: 76 to 100% | pest or weed control at 25 ppm [3]: 76 to 100% | pest or weed control at 100 ppm [4]: 76 to 100%

COc1ccc(C(=O)Oc2ncc(F)c(/N=C/N(C)C)n2)cc1 [Compound 636]
pest or weed control at 25 ppm [1]: 76 to 100% | pest or weed control at 100 ppm [2]: 76 to 100% | pest or weed control at 25 ppm [3]: 76 to 100% | pest or weed control at 100 ppm [4]: 76 to 100%

Nc1nc(OCc2ccc(CO)cc2)ncc1F [Compound 637]
pest or weed control at 25 ppm [1]: 76 to 100% | pest or weed control at 100 ppm [2]: 76 to 100% | pest or weed control at 25 ppm [3]: 76 to 100% | pest or weed control at 100 ppm [4]: 76 to 100%

COc1cccc(COc2ncc(F)c(NCOCc3ccccc3)n2)c1 [Compound 638]
pest or weed control at 25 ppm [1]: 51 to 75% | pest or weed control at 100 ppm [2]: 76 to 100% | pest or weed control at 25 ppm [3]: 0 to 25% | pest or weed control at 100 ppm [4]: 51 to 75%

COc1cccc(COc2ncc(F)c(NC(=S)Nc3ccccc3F)n2)c1 [Compound 639]
pest or weed control at 25 ppm [1]: 76 to 100% | pest or weed control at 100 ppm [2]: 76 to 100% | pest or weed control at 25 ppm [3]: 51 to 75% | pest or weed control at 100 ppm [4]: 76 to 100%

N#C/C(=N\Oc1ncc(F)c(N)n1)c1ccccc1 [Compound 640]
pest or weed control at 25 ppm [1]: 76 to 100% | pest or weed control at 100 ppm [2]: 76 to 100% | pest or weed control at 25 ppm [3]: 76 to 100% | pest or weed control at 100 ppm [4]: 76 to 100%

Cc1ccccc1C(C)Oc1ncc(F)c(/N=C/N(C)C)n1 (stereo not shown) [Compound 643]
pest or weed control at 25 ppm [1]: 76 to 100% | pest or weed control at 100 ppm [2]: 76 to 100% | pest or weed control at 25 ppm [3]: 76 to 100% | pest or weed control at 100 ppm [4]: 76 to 100%

Nc1nc(OCc2ccc(Cl)nc2)ncc1F [Compound 644]
pest or weed control at 25 ppm [1]: 76 to 100% | pest or weed control at 100 ppm [2]: 76 to 100% | pest or weed control at 25 ppm [3]: 76 to 100% | pest or weed control at 100 ppm [4]: 76 to 100%

COc1ccc(CCOc2ncc(F)c(N)n2)cc1 [Compound 645]
pest or weed control at 25 ppm [1]: 26 to 50% | pest or weed control at 100 ppm [2]: 76 to 100% | pest or weed control at 25 ppm [3]: 0 to 25% | pest or weed control at 100 ppm [4]: 51 to 75%

O=CNc1nc(OS(=O)(=O)c2ccccc2)ncc1F [Compound 646]
pest or weed control at 25 ppm [1]: 51 to 75% | pest or weed control at 100 ppm [2]: 76 to 100% | pest or weed control at 25 ppm [3]: 76 to 100% | pest or weed control at 100 ppm [4]: 76 to 100%

C=CCOC(=O)Oc1ncc(F)c(/N=C/N(C)C)n1 [Compound 647]
pest or weed control at 25 ppm [1]: 76 to 100% | pest or weed control at 100 ppm [2]: 76 to 100% | pest or weed control at 25 ppm [3]: 76 to 100% | pest or weed control at 100 ppm [4]: 76 to 100%

Nc1nc(OCc2ccc(OCc3ccc(F)cc3)cc2)ncc1F [Compound 648]
pest or weed control at 25 ppm [1]: 76 to 100% | pest or weed control at 100 ppm [2]: 76 to 100% | pest or weed control at 25 ppm [3]: 76 to 100% | pest or weed control at 100 ppm [4]: 76 to 100%

CCCCOc1cc(COc2ncc(F)c(N)n2)ccc1OC [Compound 650]
pest or weed control at 25 ppm [1]: 76 to 100% | pest or weed control at 100 ppm [2]: 76 to 100% | pest or weed control at 25 ppm [3]: 76 to 100% | pest or weed control at 100 ppm [4]: 76 to 100%

COc1cccc(COc2ncc(F)c(NOC3CCCCO3)n2)c1 (stereo not shown) [Compound 652]
pest or weed control at 25 ppm [1]: 0 to 25% | pest or weed control at 100 ppm [2]: 51 to 75% | pest or weed control at 25 ppm [3]: 0 to 25% | pest or weed control at 100 ppm [4]: 76 to 100%

C=CCCOc1ncc(F)c(N)n1 [Compound 653]
pest or weed control at 25 ppm [1]: 0 to 25% | pest or weed control at 100 ppm [2]: 0 to 25% | pest or weed control at 25 ppm [3]: 26 to 50% | pest or weed control at 100 ppm [4]: 76 to 100%

CCOCCOc1cccc(COc2ncc(F)c(NSc3ccccc3[N+](=O)[O-])n2)c1 [Compound 655]
pest or weed control at 25 ppm [1]: 51 to 75% | pest or weed control at 100 ppm [2]: 76 to 100% | pest or weed control at 25 ppm [3]: 51 to 75% | pest or weed control at 100 ppm [4]: 26 to 50%

CC[Si](CC)(CC)Nc1nc(OCc2ccccc2)ncc1F [Compound 656]
pest or weed control at 25 ppm [1]: 76 to 100% | pest or weed control at 100 ppm [2]: 76 to 100% | pest or weed control at 25 ppm [3]: 76 to 100% | pest or weed control at 100 ppm [4]: 76 to 100%

CCCCCCOc1ncc(F)c(N[Si](CC)(CC)CC)n1 [Compound 658]
pest or weed control at 25 ppm [1]: 0 to 25% | pest or weed control at 100 ppm [2]: 51 to 75% | pest or weed control at 25 ppm [3]: 0 to 25% | pest or weed control at 100 ppm [4]: 51 to 75%

COc1ccc(S(=O)(=O)Oc2ncc(F)c(N)n2)cc1 [Compound 660]
pest or weed control at 25 ppm [1]: 76 to 100% | pest or weed control at 100 ppm [2]: 76 to 100% | pest or weed control at 25 ppm [3]: 26 to 50% | pest or weed control at 100 ppm [4]: 0 to 25%

O=[N+]([O-])c1ccccc1SNc1nc(OCc2ccc(F)cc2F)ncc1F [Compound 662]
pest or weed control at 25 ppm [1]: 0 to 25% | pest or weed control at 100 ppm [2]: 76 to 100% | pest or weed control at 25 ppm [3]: 26 to 50% | pest or weed control at 100 ppm [4]: 26 to 50%
